Source: PubChem BioAssay AID248 (DTP/NCI, 2004)
Toxic doses and inconclusive results are not listed. No stated cut-off is given here; in the data, active means T/C of 150% or more; inactive means T/C below 125%.

System: L1210 leukemia ip in BDF1 mice, survival T/C
Assay: NCI In Vivo Anticancer Drug Screen. Data for tumor model L1210 Leukemia (intraperitoneal) in B6D2F1 (BDF1) mice
Settings: endpoint: mean survival time, higher = longer survival
In short: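 Mice bearing the transplanted tumor received compound or vehicle. Survival of the treated group was divided by that of the vehicle-treated control group to give the ratio.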

[1] = dose: 100.0 mg/kg/injection, schedule: Q01DX001 (ip), vehicle: saline
[2] = dose: 200.0 mg/kg/injection, schedule: Q01DX001 (ip), vehicle: saline
[3] = dose: 400.0 mg/kg/injection, schedule: Q01DX001 (ip), vehicle: saline

Measured: T/C

COc1ccc(C=O)cc1OCc1ccccc1
inactive: dose: 100.0 mg/kg/injection, schedule: Q01DX009 (ip), vehicle: water 96 % of control | dose: 100.0 mg/kg/injection, schedule: Q04DX003 (ip), vehicle: water 100 % of control | dose: 200.0 mg/kg/injection, schedule: Q01DX009 (ip), vehicle: water 96 % of control | dose: 200.0 mg/kg/injection, schedule: Q04DX003 (ip), vehicle: water 96 % of control | dose: 400.0 mg/kg/injection, schedule: Q01DX009 (ip), vehicle: water 102 % of control | dose: 400.0 mg/kg/injection, schedule: Q04DX003 (ip), vehicle: water 100 % of control

c1ccc2c(c1)-c1cccc3cccc-2c13
inactive: dose: 100.0 mg/kg/injection, schedule: Q01DX009 (ip), vehicle: Klucel (hydroxypropylcellulose) (HPC) 95 % of control | dose: 100.0 mg/kg/injection, schedule: Q04DX003 (ip), vehicle: Klucel (hydroxypropylcellulose) (HPC) 95 % of control | dose: 200.0 mg/kg/injection, schedule: Q01DX009 (ip), vehicle: Klucel (hydroxypropylcellulose) (HPC) 95 % of control | dose: 200.0 mg/kg/injection, schedule: Q04DX003 (ip), vehicle: Klucel (hydroxypropylcellulose) (HPC) 95 % of control | dose: 400.0 mg/kg/injection, schedule: Q01DX009 (ip), vehicle: Klucel (hydroxypropylcellulose) (HPC) 101 % of control | dose: 400.0 mg/kg/injection, schedule: Q04DX003 (ip), vehicle: Klucel (hydroxypropylcellulose) (HPC) 101 % of control

CN(C)CCC(=O)c1ccc2cc(Br)c3ccccc3c2c1
inactive: dose: 13.3 mg/kg/injection, schedule: Q01DX Z (ip), vehicle: methylcellulose (MC) 91 % of control | dose: 30.0 mg/kg/injection, schedule: Q01DX Z (ip), vehicle: methylcellulose (MC) 95 % of control

O=C(/C(=N\O)c1ccc(Cl)cc1)c1ccc(Cl)cc1
inactive: dose: 50.0 mg/kg/injection, schedule: Q01DX009 (ip), vehicle: saline with Tween-80 100 % of control | dose: 100.0 mg/kg/injection, schedule: Q01DX009 (ip), vehicle: saline with Tween-80 89 % of control | dose: 200.0 mg/kg/injection, schedule: Q01DX009 (ip), vehicle: saline with Tween-80 92 % of control

O=C(CCl)NCc1ccc(Cl)c(C(=O)O)c1
inactive: [1] 103 % of control | dose: 100.0 mg/kg/injection, schedule: Q04DX003 (ip), vehicle: saline 98 % of control | [2] 99 % of control | dose: 200.0 mg/kg/injection, schedule: Q04DX003 (ip), vehicle: saline 88 % of control | [3] 89 % of control | dose: 400.0 mg/kg/injection, schedule: Q04DX003 (ip), vehicle: saline 96 % of control

C=CCSc1cccc(Cl)c1
inactive: [1] 101 % of control | [2] 96 % of control

Clc1ccc(/C=N/Nc2nc3ccccc3s2)cc1
inactive: dose: 222.0 mg/kg/injection, schedule: Q01DX Z (ip), vehicle: methylcellulose (MC) 97 % of control | dose: 333.0 mg/kg/injection, schedule: Q01DX Z (ip), vehicle: methylcellulose (MC) 101 % of control | dose: 500.0 mg/kg/injection, schedule: Q01DX Z (ip), vehicle: methylcellulose (MC) 91 % of control

NC(=O)C(F)(F)c1ccccc1
inactive: [1] 105 % of control | [2] 103 % of control | [3] 102 % of control

CC/C(=C(\CC)c1ccc(OCC(=O)OCCNCCCl)cc1)c1ccc(OCC(=O)OCCNCCCl)cc1
inactive: dose: 6.25 mg/kg/injection, schedule: Q04DX002 (ip), vehicle: saline 94 % of control | dose: 12.5 mg/kg/injection, schedule: Q04DX002 (ip), vehicle: saline 97 % of control | dose: 25.0 mg/kg/injection, schedule: Q04DX002 (ip), vehicle: saline 94 % of control

Cc1cc(S(=O)(=O)c2cc(C)c(O)c(C(N)=O)c2)cc(C(N)=O)c1O
inactive: dose: 100.0 mg/kg/injection, schedule: Q04DX002 (ip), vehicle: carboxymethylcellulose (CMC) 95 % of control | dose: 200.0 mg/kg/injection, schedule: Q04DX002 (ip), vehicle: carboxymethylcellulose (CMC) 103 % of control | dose: 400.0 mg/kg/injection, schedule: Q04DX002 (ip), vehicle: carboxymethylcellulose (CMC) 98 % of control
